Data set [1] deals with T1, VHL (Homo sapiens, UniProt P40337).
T1 construct: expressed in transfected cells
The experiment in a line: VHL nanoBRET (+ Digitonin). The class given is cell-based. On the procedure:
(§1) The VHL NanoBRET™ Target Engagement Assay analyzes the apparent affinity of test compounds for VHL in cells by competitive displacement of a VHL NanoBRET™ tracer reversibly bound to a NanoLuc® VHL fusion protein stably expressed in the cells.
(§2) 50 nL of control compound (10 mM; parental unlabeled VHL antagonist; see structure below) and 50 nL of DMSO (negative control) were dispensed into the appropriate control wells. DMSO was backfilled to a final volume of 50 nL as required. […] Max Signal control wells consisted of DMSO only treated wells. Minimum Signal control wells contained of 10 uM parental unlabeled VHL antagonist (control compound—see structure below). […] Background Signal control wells were prepared without tracer for background correction steps.
(§3) The raw BRET ratio values were calculated by dividing the acceptor emission value (610 nm) by the donor emission value (460 nm) for each sample. To correct for background, the BRET ratio in the absence of tracer (average of no-tracer control samples) was subtracted from the BRET ratio of each sample. Raw BRET units were converted to milliBRET units (mBU) by multiplying each raw BRET value by 1,000. The normalized NanoBRET™ signal was calculated relative to the Max Signal control wells (DMSO treated control wells) and the Minimum Signal control wells. Percentage inhibition was calculated relative to the Minimum Signal control and Maximum Signal control wells. IC50 values were derived by four parameter curve fitting using the Robust method.
A general note: In BRET a luciferase serves as donor, and the signal depends on an acceptor being close.

Data set [2] concerns the target T1, VHL. Briefly: VHL HEK-293 BRET Assay (VHL NanoBRET Target Engagement Assay). Format: cell-based. The settings on record: for pIC50: HEK 293 RT VHL-NanoLuc stable cells, 1 uM tracer, 2 hours, geometric mean where more than one measurement, read-out: VHL binding in cells (HEK293 nanoBRET); for Ratio cell permeability shift: ratio not defined. On the procedure:
as §1, §2, §3

pEC50, pIC50: −log10 of the molar value.

T1 sequence (P40337 whole entry): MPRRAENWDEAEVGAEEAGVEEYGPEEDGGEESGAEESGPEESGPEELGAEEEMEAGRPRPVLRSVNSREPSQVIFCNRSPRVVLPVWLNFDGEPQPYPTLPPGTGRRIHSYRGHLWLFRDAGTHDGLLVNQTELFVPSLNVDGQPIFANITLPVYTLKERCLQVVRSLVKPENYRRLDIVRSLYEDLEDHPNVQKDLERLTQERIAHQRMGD

Compound `NC(=O)[C@@H](Cc1ccc(-c2ccccc2)cc1)NC(=O)[C@@H]1C[C@@H](O)CN1C(=O)[C@H](C1CCC1)n1cc(C2CC2)nn1` [Example S4, (2S,4R)—N—((R)-3-([1,1′-biphenyl]-4-yl)-1-amino-1-oxopropan-2-yl)-1-((S)-2-cyclobutyl-2-(4-cyclopropyl-1H-1,2,3-triazol-1-yl)acetyl)-4-hydroxypyrrolidine-2-carboxamide] gave a pEC50 at VHL [1] of 6.70. Moreover, on VHL [2], the pIC50 is 6.72 and the “Ratio cell permeability shift” value worked out at 0.96.
`CC[C@H](C)[C@@H](C(=O)N1C[C@H](O)C[C@H]1C(=O)N[C@H](Cc1ccc(-c2ccccc2)cc1)C(N)=O)n1cc(C2CC2)nn1` [Example S5, (2S,4R)—N—((R)-3-([1,1′-biphenyl]-4-yl)-1-amino-1-oxopropan-2-yl)-1-((2S,3S)-2-(4-cyclopropyl-1H-1,2,3-triazol-1-yl)-3-methylpentanoyl)-4-hydroxypyrrolidine-2-carboxamide]: the pEC50 at VHL [1] was 6.77. Also, on VHL [2], the pIC50 is 6.89 and the “Ratio cell permeability shift” value is 0.77.
The like results for `CCC(C)(C)[C@@H](C(=O)N1C[C@H](O)C[C@H]1C(=O)N[C@H](Cc1ccc(-c2ccccc2)cc1)C(N)=O)n1cc(C2CC2)nn1` [Example S6, (2S,4R)—N—((R)-3-([1,1′-biphenyl]-4-yl)-1-amino-1-oxopropan-2-yl)-1-((S)-2-(4-cyclopropyl-1H-1,2,3-triazol-1-yl)-3,3-dimethylpentanoyl)-4-hydroxypyrrolidine-2-carboxamide] were, in that order, 6.85, 7.00 and 0.76.
As to `C=CC(C)(C)[C@@H](C(=O)N1C[C@H](O)C[C@H]1C(=O)N[C@H](Cc1ccc(-c2ccccc2)cc1)C(N)=O)n1cc(C2CC2)nn1` [Example S7, (2S,4R)—N—((R)-3-([1,1′-biphenyl]-4-yl)-1-amino-1-oxopropan-2-yl)-1-((S)-2-(4-cyclopropyl-1H-1,2,3-triazol-1-yl)-3,3-dimethylpent-4-enoyl)-4-hydroxypyrrolidine-2-carboxamide], the pEC50 on VHL [1] was 6.80. Further, at VHL [2], the pIC50 was 6.96 and the “Ratio cell permeability shift” value was determined as 0.68.
The like results for `NC(=O)[C@@H](Cc1ccc(-c2ccccc2)cc1)NC(=O)[C@@H]1C[C@@H](O)CN1C(=O)[C@@H](n1cc(C2CC2)nn1)C12CC3CC(CC(C3)C1)C2` [Example S8, (2S,4R)—N—((R)-3-([1,1′-biphenyl]-4-yl)-1-amino-1-oxopropan-2-yl)-1-((2S)-2-(adamantan-1-yl)-2-(4-cyclopropyl-1H-1,2,3-triazol-1-yl)acetyl)-4-hydroxypyrrolidine-2-carboxamide] were, in that order, 6.80, 6.92 and 0.73.
On to `CC(=O)NCC1(c2cn([C@@H](C(=O)N3C[C@H](O)C[C@H]3C(=O)N[C@H](Cc3ccc(-c4ccccc4)cc3)C(N)=O)C(C)(C)C)nn2)CC1` [Example S12, (2S,4R)—N—((R)-3-([1,1′-biphenyl]-4-yl)-1-amino-1-oxopropan-2-yl)-1-((R)-2-(4-(1-(acetamidomethyl)cyclopropyl)-1H-1,2,3-triazol-1-yl)-3,3-dimethylbutanoyl)-4-hydroxypyrrolidine-2-carboxamide], for which the pEC50 on VHL [1] was 4.61. For the same compound, on VHL [2], the pIC50 is less than 4.00.
`CC(=O)NCC1(c2cn([C@H](C(=O)N3C[C@H](O)C[C@H]3C(=O)N[C@H](Cc3ccc(-c4ccccc4)cc3)C(N)=O)C(C)(C)C)nn2)CC1` [Example S13, (2S,4R)—N—((R)-3-([1,1′-biphenyl]-4-yl)-1-amino-1-oxopropan-2-yl)-1-((S)-2-(4-(1-(acetamidomethyl)cyclopropyl)-1H-1,2,3-triazol-1-yl)-3,3-dimethylbutanoyl)-4-hydroxypyrrolidine-2-carboxamide] gave a pEC50 on VHL [1] of 6.66. On VHL [2], the pIC50 is 5.64 and the “Ratio cell permeability shift” value is 10.22.
In turn, `CC(C)(C)[C@@H](C(=O)N1C[C@H](O)C[C@H]1C(=O)N[C@H](Cc1ccc(-c2ccccc2)cc1)C(N)=O)n1cc(C(=O)O)nn1` [Example S15, 1-((S)-1-((2S,4R)-2-(((R)-3-([1,1′-biphenyl]-4-yl)-1-amino-1-oxopropan-2-yl)carbamoyl)-4-hydroxypyrrolidin-1-yl)-3,3-dimethyl-1-oxobutan-2-yl)-1H-1,2,3-triazole-4-carboxylic acid] gave a pEC50 on VHL [1] of 6.21. Further, at VHL [2], the pIC50 is 4.16 and the “Ratio cell permeability shift” value is listed as 115.18.
Taken in the same sequence, the figures for `CC(C)(C)[C@@H](C(=O)N1C[C@H](O)C[C@H]1C(=O)N[C@H](Cc1ccc(-c2ccccc2)cc1)C(N)=O)n1cc(C(N)=O)nn1` [Example S16, 1-((S)-1-((2S,4R)-2-(((R)-3-([1,1′-biphenyl]-4-yl)-1-amino-1-oxopropan-2-yl)carbamoyl)-4-hydroxypyrrolidin-1-yl)-3,3-dimethyl-1-oxobutan-2-yl)-1H-1,2,3-triazole-4-carboxamide] were 6.40, 5.48 and 8.30.
The like results for `Cc1ncsc1-c1ccc([C@H](C)NC(=O)[C@@H]2C[C@@H](O)CN2C(=O)[C@@H](n2cc(C3CC3)nn2)C(C)(C)C)cc1` [Example S18, (2S,4R)-1-((S)-2-(4-cyclopropyl-1H-1,2,3-triazol-1-yl)-3,3-dimethylbutanoyl)-4-hydroxy-N—((S)-1-(4-(4-methylthiazol-5-yl)phenyl)ethyl)pyrrolidine-2-carboxamide] were, in that order, 8.00, 8.00 and 0.85.
For `Cc1ncsc1-c1ccc([C@H](C)NC(=O)[C@@H]2C[C@@H](O)CN2C(=O)[C@H](C2CCCCC2)n2cc(C3CC3)nn2)cc1` [Example S19, (2S,4R)-1-((S)-2-cyclohexyl-2-(4-cyclopropyl-1H-1,2,3-triazol-1-yl)acetyl)-4-hydroxy-N—((S)-1-(4-(4-methylthiazol-5-yl)phenyl)ethyl)pyrrolidine-2-carboxamide], the pEC50 on VHL [1] is greater than 8.30. In addition, on VHL [2], the pIC50 was greater than 8.30 and the “Ratio cell permeability shift” value is on record as roughly 1.
On VHL [1], `Cc1ncsc1-c1ccc([C@H](C)NC(=O)[C@@H]2C[C@@H](O)CN2C(=O)[C@@H](n2cc(C3CC3)nn2)C23CC4CC(CC(C4)C2)C3)cc1` [Example S20, (2S,4R)-1-((2S)-2-(adamantan-1-yl)-2-(4-cyclopropyl-1H-1,2,3-triazol-1-yl)acetyl)-4-hydroxy-N—((S)-1-(4-(4-methylthiazol-5-yl)phenyl)ethyl)pyrrolidine-2-carboxamide] had a pEC50 of 8.00. Besides, the “Ratio cell permeability shift” value on VHL [2] was found to be 0.54.
For `CCC(C)(C)[C@@H](C(=O)N1C[C@H](O)C[C@H]1C(=O)N[C@@H](C)c1ccc(-c2scnc2C)cc1)n1cc(C2CC2)nn1` [Example S21, (2S,4R)-1-((S)-2-(4-cyclopropyl-1H-1,2,3-triazol-1-yl)-3,3-dimethylpentanoyl)-4-hydroxy-N—((S)-1-(4-(4-methylthiazol-5-yl)phenyl)ethyl)pyrrolidine-2-carboxamide], at VHL [1], the pEC50 is 8.00. Moreover, the “Ratio cell permeability shift” value on VHL [2] came to 0.67.
`Cc1ncsc1-c1ccc(C(C)NC(=O)[C@@H]2C[C@@H](O)CN2C(=O)[C@@H](n2cc(C3CC3)nn2)C(C)(C)C)c(Cl)c1` (stereo partly drawn) [Example S22, (2S,4R)—N-(1-(2-chloro-4-(4-methylthiazol-5-yl)phenyl)ethyl)-1-((S)-2-(4-cyclopropyl-1H-1,2,3-triazol-1-yl)-3,3-dimethylbutanoyl)-4-hydroxypyrrolidine-2-carboxamide] gave a pEC50 on VHL [1] of 8.00. Moreover, at VHL [2], the pIC50 is 8.00 and the “Ratio cell permeability shift” value came out at 0.72.
For the compound `Cc1ncsc1-c1ccc(C(C)NC(=O)[C@@H]2C[C@@H](O)CN2C(=O)[C@@H](n2cc(C3CC3)nn2)C23CC4CC(CC(C4)C2)C3)c(Cl)c1` (stereo partly drawn) [Example S23, (2S,4R)-1-((2S)-2-(adamantan-1-yl)-2-(4-cyclopropyl-1H-1,2,3-triazol-1-yl)acetyl)-N-(1-(2-chloro-4-(4-methylthiazol-5-yl)phenyl)ethyl)-4-hydroxypyrrolidine-2-carboxamide], at VHL [1], the pEC50 is 7.40. Also, on VHL [2], the pIC50 is 7.70 and the “Ratio cell permeability shift” value came out at 0.42.
For `Cc1ncsc1-c1ccc(CNC(=O)[C@@H]2C[C@@H](O)CN2C(=O)[C@@H](n2cc(C3CC3)nn2)C(C)(C)c2ccccc2)cc1` [Example S26, (2S,4R)-1-((S)-2-(4-cyclopropyl-1H-1,2,3-triazol-1-yl)-3-methyl-3-phenylbutanoyl)-4-hydroxy-N-(4-(4-methylthiazol-5-yl)benzyl)pyrrolidine-2-carboxamide], the pEC50 at VHL [1] is 7.70. Further, at VHL [2], the pIC50 is 7.70 and the “Ratio cell permeability shift” value is reported as 1.02.

The pEC50 is the EC50 on a negative log10 scale, so that one unit is a factor of ten. High values mean a low EC50, low ones a high EC50.

Values taken from patent US20230391766A1, “1-(2-(4-CYCLOPROPYL-1H-1,2,3-TRIAZOL-1-YL)ACETYL)-4-HYDROXY-N-(BENZYL)PYRROLIDIN E-2-CARBOXAMIDE DERIVATIVES AS VHL INHIBITORS FOR THE TREATMENT OF ANEMIA AND CANCER” (Genentech, Inc., priority 2020, published 2023).
